Four molecules from PubChem BioAssay AID1259407 (Chemical Carcinogenesis Research Information System (CCRIS), 2018) can be followed below.

The test system of the data set is CCRIS mutagenicity, Ames/micronucleus/aberration tests. The data set can be described thus: CCRIS mutagenicity studies.
[1] abbreviates: Test System: AMES SALMONELLA TYPHIMURIUM, Strain/Indicator: TA97, Metabolic Activation: HAMSTER, LIVER, S-9, AROCLOR 1254 (10%), Method: PREINCUBATION
[2] abbreviates: Test System: AMES SALMONELLA TYPHIMURIUM, Strain/Indicator: TA97, Metabolic Activation: HAMSTER, LIVER, S-9, AROCLOR 1254 (30%), Method: PREINCUBATION
Where [3] appears, read: Test System: AMES SALMONELLA TYPHIMURIUM, Strain/Indicator: TA97, Metabolic Activation: RAT, LIVER, S-9, AROCLOR 1254 (30%), Method: PREINCUBATION
[4] abbreviates: Test System: AMES SALMONELLA TYPHIMURIUM, Strain/Indicator: TA97, Metabolic Activation: RAT, LIVER, S-9, AROCLOR 1254, Method: PREINCUBATION
The mark [5] stands for this setting: Test System: AMES SALMONELLA TYPHIMURIUM, Strain/Indicator: TA98, Metabolic Activation: HAMSTER, LIVER, S-9, AROCLOR 1254 (10%), Method: PREINCUBATION
The mark [6] stands for this setting: Test System: AMES SALMONELLA TYPHIMURIUM, Strain/Indicator: TA98, Metabolic Activation: HAMSTER, LIVER, S-9, AROCLOR 1254 (30%), Method: PREINCUBATION
Setting [7] is: Test System: AMES SALMONELLA TYPHIMURIUM, Strain/Indicator: TA98, Metabolic Activation: NONE, Method: PREINCUBATION
[8] abbreviates: Test System: AMES SALMONELLA TYPHIMURIUM, Strain/Indicator: TA98, Metabolic Activation: RAT, LIVER, S-9, AROCLOR 1254 (10%), Method: PREINCUBATION
Setting [9] is: Test System: AMES SALMONELLA TYPHIMURIUM, Strain/Indicator: TA98, Metabolic Activation: RAT, LIVER, S-9, AROCLOR 1254 (30%), Method: PREINCUBATION
The mark [10] stands for this setting: Test System: AMES SALMONELLA TYPHIMURIUM, Strain/Indicator: TA100, Metabolic Activation: HAMSTER, LIVER, S-9, AROCLOR 1254 (10%), Method: PREINCUBATION
Where [11] appears, read: Test System: AMES SALMONELLA TYPHIMURIUM, Strain/Indicator: TA100, Metabolic Activation: HAMSTER, LIVER, S-9, AROCLOR 1254 (30%), Method: PREINCUBATION
Setting [12] is: Test System: AMES SALMONELLA TYPHIMURIUM, Strain/Indicator: TA100, Metabolic Activation: NONE, Method: PREINCUBATION
The mark [13] stands for this setting: Test System: AMES SALMONELLA TYPHIMURIUM, Strain/Indicator: TA100, Metabolic Activation: RAT, LIVER, S-9, AROCLOR 1254 (10%), Method: PREINCUBATION
[14] abbreviates: Test System: AMES SALMONELLA TYPHIMURIUM, Strain/Indicator: TA100, Metabolic Activation: RAT, LIVER, S-9, AROCLOR 1254 (30%), Method: PREINCUBATION
Where [15] appears, read: Test System: AMES SALMONELLA TYPHIMURIUM, Strain/Indicator: TA102, Metabolic Activation: NONE, Method: PREINCUBATION
Setting [16] is: Test System: AMES SALMONELLA TYPHIMURIUM, Strain/Indicator: TA102, Metabolic Activation: RAT, LIVER, S-9, AROCLOR 1254, Method: PREINCUBATION
Where [17] appears, read: Test System: AMES SALMONELLA TYPHIMURIUM, Strain/Indicator: TA1535, Metabolic Activation: HAMSTER, LIVER, S-9, AROCLOR 1254 (10%), Method: PREINCUBATION
[18] abbreviates: Test System: AMES SALMONELLA TYPHIMURIUM, Strain/Indicator: TA1535, Metabolic Activation: NONE, Method: PREINCUBATION
The mark [19] stands for this setting: Test System: AMES SALMONELLA TYPHIMURIUM, Strain/Indicator: TA1535, Metabolic Activation: RAT, LIVER, S-9, AROCLOR 1254 (10%), Method: PREINCUBATION
Setting [20] is: Test System: AMES SALMONELLA TYPHIMURIUM, Strain/Indicator: TA1537, Metabolic Activation: NONE, Method: PREINCUBATION

Activity calls are given as the source filed them. The rule behind the calls is not given here.

Regarding `CC(=O)O`, the mutagenic call by setting is: under setting [1], “inactive; negative”; under setting [2], “inactive; negative”; (Test System: AMES SALMONELLA TYPHIMURIUM, Strain/Indicator: TA97, Metabolic Activation: NONE, Method: PREINCUBATION) “inactive; negative”; (Test System: AMES SALMONELLA TYPHIMURIUM, Strain/Indicator: TA97, Metabolic Activation: RAT, LIVER, S-9, AROCLOR 1254 (10%), Method: PREINCUBATION) “inactive; negative”; under setting [3], “inactive; negative”; under setting [4], “inactive; negative”. Also, the mutagenic call under setting [5] was “inactive; negative”; the mutagenic call under setting [6] was “inactive; negative”; the mutagenic call under setting [7] was “inactive; negative”; the mutagenic call under setting [8] is “inactive; negative”; the mutagenic call under setting [9] is “inactive; negative”; the mutagenic call under setting [10] is “inactive; negative”. The mutagenic call runs as follows: under setting [11], “inactive; negative”; under setting [12], “inactive; negative”; under setting [13], “inactive; negative”; under setting [14], “inactive; negative”; under setting [15], “inactive; negative”; under setting [16], “inactive; negative”. The mutagenic call runs as follows: under setting [17], “inactive; negative”; (Test System: AMES SALMONELLA TYPHIMURIUM, Strain/Indicator: TA1535, Metabolic Activation: HAMSTER, LIVER, S-9, AROCLOR 1254 (30%), Method: PREINCUBATION) “inactive; negative”; under setting [18], “inactive; negative”; under setting [19], “inactive; negative”; (Test System: AMES SALMONELLA TYPHIMURIUM, Strain/Indicator: TA1535, Metabolic Activation: RAT, LIVER, S-9, AROCLOR 1254 (30%), Method: PREINCUBATION) “inactive; negative”.
In the case of `CCCCCCCCCCCCOS(=O)(=O)O`, the mutagenic call runs as follows: under setting [5], “inactive; negative”; under setting [7], “inactive; negative”; under setting [8], “inactive; negative”; under setting [10], “inactive; negative”; under setting [12], “inactive; negative”; under setting [13], “inactive; negative”. Besides, the mutagenic call is “inactive; negative” under setting [17]; “inactive; negative” under setting [18]; “inactive; negative” under setting [19]; “inactive; negative” (Test System: AMES SALMONELLA TYPHIMURIUM, Strain/Indicator: TA1537, Metabolic Activation: HAMSTER, LIVER, S-9, AROCLOR 1254 (10%), Method: PREINCUBATION); “inactive; negative” under setting [20]; “inactive; negative” (Test System: AMES SALMONELLA TYPHIMURIUM, Strain/Indicator: TA1537, Metabolic Activation: RAT, LIVER, S-9, AROCLOR 1254 (10%), Method: PREINCUBATION).
Consider `[O-][Br+2]([O-])O`, for which the mutagenic call by setting is: (End Point: IN VITRO CHROMOSOMAL ABERRATIONS, Test System: CHL/IU CELLS, Metabolic Activation: NONE) “active; positive (structural changes)”; (End Point: IN VITRO MICRONUCLEUS, Test System: CHL/IU CELLS, Metabolic Activation: NONE) “active; positive”; (End Point: IN VIVO MICRONUCLEUS, Test System: BONE MARROW POLYCHROMATIC ERYTHROCYTES, Species: MOUSE, Strain/Sex: DDY/MALE, Route: ORAL) “active; positive”; (End Point: In vitro chromosomal aberrations, Test System: Chinese hamster lung (CHL) cells, Metabolic Activation: None) “active; positive (structural changes)”; (End Point: In vitro micronucleus, Test System: Human TK6 lymphoblastoid cells, Metabolic Activation: None) “active; positive”; (End Point: In vivo micronucleus, Test System: Peripheral blood normochromatic erythrocytes, Species: Mouse, Strain/Sex: Tg.AC hemizygous/Female, Route: Dermal) “active; positive”. Besides, the mutagenic call (End Point: In vivo micronucleus, Test System: Peripheral blood normochromatic erythrocytes, Species: Mouse, Strain/Sex: Tg.AC hemizygous/Female, Route: Oral) is “active; positive”; the mutagenic call (End Point: In vivo micronucleus, Test System: Peripheral blood normochromatic erythrocytes, Species: Mouse, Strain/Sex: Tg.AC hemizygous/Male, Route: Dermal) was “active; positive”; the mutagenic call (End Point: In vivo micronucleus, Test System: Peripheral blood normochromatic erythrocytes, Species: Mouse, Strain/Sex: Tg.AC hemizygous/Male, Route: Oral) is “active; positive”; the mutagenic call (End Point: In vivo micronucleus, Test System: Peripheral blood normochromatic erythrocytes, Species: Mouse, Strain/Sex: p53 Haploinsufficient/Female, Route: Oral) is “active; positive”; the mutagenic call (End Point: In vivo micronucleus, Test System: Peripheral blood normochromatic erythrocytes, Species: Mouse, Strain/Sex: p53 Haploinsufficient/Male, Route: Oral) was “active; positive”; the mutagenic call (End Point: In vivo mutagenicity, Test System: Kidney, Species: Rat, Strain/Sex: Big Blue/male, Route: Oral) is “active; positive for mutants and total mutation frequencies and frequency of gc to ta tr”. Also, the mutagenic call under setting [1] is “inactive; negative”; the mutagenic call under setting [2] was “inactive; negative”; the mutagenic call under setting [3] is “inactive; negative”; the mutagenic call under setting [4] is “inactive; negative”; the mutagenic call under setting [6] was “inactive; negative”; the mutagenic call under setting [7] is “inactive; negative”. The mutagenic call runs as follows: under setting [9], “inactive; negative”; under setting [11], “inactive; negative”; under setting [12], “inactive; negative”; under setting [14], “inactive; negative”; under setting [15], “inactive; negative”; under setting [16], “inactive; negative”. Moreover, the mutagenic call was “active; positive” under setting [17]; “inactive; negative” under setting [18]; “inactive; negative” (Test System: AMES SALMONELLA TYPHIMURIUM, Strain/Indicator: TA1537, Metabolic Activation: HAMSTER, LIVER, S-9, AROCLOR 1254 (10 OR 30%), Method: PREINCUBATION); “inactive; negative” under setting [20]; “inactive; negative” (Test System: AMES SALMONELLA TYPHIMURIUM, Strain/Indicator: TA1537, Metabolic Activation: RAT, LIVER, S-9, AROCLOR 1254 (10 OR 30%), Method: PREINCUBATION); “active; positive” (Test System: CHINESE HAMSTER V-79 CELLS, Strain/Indicator: V-79-UL (HPRT)/6-THIOGUANINE, Metabolic Activation: NONE, Method: SUSPENSION/PLATE). Also, the mutagenic call (Test System: Human lymphoblastoid cells, Strain/Indicator: TK6 (HPRT)/6-thioguanine, Metabolic Activation: None, Method: Suspension/Well) was “active; positive”.
For `OCc1ccc(F)cc1`, under “Test System: AMES SALMONELLA TYPHIMURIUM, Strain/Indicator: TA100, Metabolic Activation: NONE, Method: STANDARD PLATE”, the mutagenic call was “inactive; negative”.
